Data from the supplement of paper PMC10733146.

What was measured:
Experiment in all cases: viability relative to DMSO control (fraction); higher = less drug effect (more viable cells)
Conditions in all cases: 48 h
[1] = tested on: primary ALL patient cells (S048)
How it was run: (§1)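 Viability is given as CellTiter-Glo luminescence relative to the median of 16 inner DMSO wells. Fresh or cryopreserved primary mononuclear tumour cells from blood, bone marrow (both Ficoll-isolated) or processed lymph node were plated at 4 × 10^4 cells per well in 384-well plates against five pre-plated compound concentrations, one well each. Incubation lasted 48 h at 37 °C and 5% CO2 in RPMI-1640 with penicillin/streptomycin, L-glutamine and human serum.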

[2] = tested on: primary FL patient cells (S022)
How it was run: as §1

[3] = tested on: primary AML patient cells (S081)
How it was run: as §1

[4] = tested on: primary DLBCL patient cells (S049)
How it was run: as §1

[5] = tested on: primary AML patient cells (S019)
How it was run: as §1

[6] = tested on: primary AML patient cells (S011)
How it was run: as §1

[7] = tested on: primary T-PLL patient cells (S008)
How it was run: as §1

[8] = tested on: primary AML patient cells (S091)
How it was run: as §1

[9] = tested on: primary AML patient cells (S089)
How it was run: as §1

[10] = tested on: primary AML patient cells (S021)
How it was run: as §1

[11] = tested on: primary AML patient cells (S002)
How it was run: as §1

[12] = tested on: primary AML patient cells (S025)
How it was run: as §1

[13] = tested on: primary MCL patient cells (S068)
How it was run: as §1

[14] = tested on: primary T-NHL patient cells (S058)
How it was run: as §1

[15] = tested on: primary AML patient cells (S055)
How it was run: as §1

[16] = tested on: primary AML patient cells (S037)
How it was run: as §1

[17] = tested on: primary DLBCL patient cells (S076)
How it was run: as §1

COc1ccc(C2=N[C@@H](c3ccc(Cl)cc3)[C@@H](c3ccc(Cl)cc3)N2C(=O)N2CCNC(=O)C2)c(OC(C)C)c1 [Nutlin-3a] gave a viability ([1]; 0.032 µM) of 0.97, a viability ([1]; 0.16 µM) of 0.995 and a viability ([1]; 0.8 µM) of 0.881. It also gave a viability ([1]; 4 µM) of 0.506, a viability ([1]; 20 µM) of 0.056 and a viability ([2]; 0.032 µM) of 0.954. The viability ([2]; 0.16 µM) was 0.936, the viability ([2]; 0.8 µM) was 1.02 and the viability ([2]; 4 µM) was 0.881. It also gave a viability ([2]; 20 µM) of 0.621, a viability ([3]; 0.032 µM) of 0.997 and a viability ([3]; 0.16 µM) of 0.979. It also gave a viability ([3]; 0.8 µM) of 1.03, a viability ([3]; 4 µM) of 1.02 and a viability ([3]; 20 µM) of 0.783. For the same compound, the viability ([4]; 0.032 µM) was 1.1, the viability ([4]; 0.16 µM) was 0.987 and the viability ([4]; 0.8 µM) was 1.01. The viability ([4]; 4 µM) was 1.04, the viability ([4]; 20 µM) was 0.835 and the viability ([5]; 0.032 µM) was 1.13. It also gave a viability ([5]; 0.16 µM) of 1.03, a viability ([5]; 0.8 µM) of 1.08 and a viability ([5]; 4 µM) of 0.546. The viability ([5]; 20 µM) was 0.259, the viability ([6]; 0.032 µM) was 0.973 and the viability ([6]; 0.16 µM) was 1.04. For the same compound, the viability ([6]; 0.8 µM) was 0.8, the viability ([6]; 4 µM) was 0.363 and the viability ([6]; 20 µM) was 0.155. For the same compound, the viability ([7]; 0.032 µM) was 1, the viability ([7]; 0.16 µM) was 0.972 and the viability ([7]; 0.8 µM) was 0.963. It also gave a viability ([7]; 4 µM) of 0.583, a viability ([7]; 20 µM) of 0.205 and a viability ([8]; 0.032 µM) of 0.988. The viability ([8]; 0.16 µM) was 0.84, the viability ([8]; 0.8 µM) was 0.62 and the viability ([8]; 4 µM) was 0.404. The viability ([8]; 20 µM) was 0.365, the viability ([9]; 0.032 µM) was 1.07 and the viability ([9]; 0.16 µM) was 1.01. It also gave a viability ([9]; 0.8 µM) of 1.01, a viability ([9]; 4 µM) of 0.802 and a viability ([9]; 20 µM) of 0.511. The viability ([10]; 0.032 µM) was 0.972, the viability ([10]; 0.16 µM) was 0.978 and the viability ([10]; 0.8 µM) was 0.73. It also gave a viability ([10]; 4 µM) of 0.328, a viability ([10]; 20 µM) of 0.2 and a viability ([11]; 0.032 µM) of 0.891. The viability ([11]; 0.16 µM) was 0.91, the viability ([11]; 0.8 µM) was 0.726 and the viability ([11]; 4 µM) was 0.401. The viability ([11]; 20 µM) was 0.268, the viability ([12]; 0.032 µM) was 0.961 and the viability ([12]; 0.16 µM) was 0.947. For the same compound, the viability ([12]; 0.8 µM) was 0.788, the viability ([12]; 4 µM) was 0.346 and the viability ([12]; 20 µM) was 0.0996. It also gave a viability ([13]; 0.032 µM) of 1.17, a viability ([13]; 0.16 µM) of 0.988 and a viability ([13]; 0.8 µM) of 0.987. It also gave a viability ([13]; 4 µM) of 0.929, a viability ([13]; 20 µM) of 0.949 and a viability ([14]; 0.032 µM) of 0.946. For the same compound, the viability ([14]; 0.16 µM) was 0.939, the viability ([14]; 0.8 µM) was 0.941 and the viability ([14]; 4 µM) was 0.634. It also gave a viability ([14]; 20 µM) of 0.18, a viability ([15]; 0.032 µM) of 1.03 and a viability ([15]; 0.16 µM) of 1.02. For the same compound, the viability ([15]; 0.8 µM) was 0.977, the viability ([15]; 4 µM) was 0.911 and the viability ([15]; 20 µM) was 0.306. It also gave a viability ([16]; 0.032 µM) of 0.982, a viability ([16]; 0.16 µM) of 0.974 and a viability ([16]; 0.8 µM) of 0.964. It also gave a viability ([16]; 4 µM) of 0.742, a viability ([16]; 20 µM) of 0.421 and a viability ([17]; 0.032 µM) of 0.907. It also gave a viability ([17]; 0.16 µM) of 0.909, a viability ([17]; 0.8 µM) of 0.934 and a viability ([17]; 4 µM) of 0.737. For the same compound, the viability ([17]; 20 µM) was 0.357.

Nc1ccn([C@@H]2O[C@H](CO)[C@@H](O)[C@@H]2O)c(=O)n1 [Cytarabine] was tested, and the viability ([1]; 0.032 µM) was 0.974, the viability ([1]; 0.16 µM) was 0.862 and the viability ([1]; 0.8 µM) was 0.561. The viability ([1]; 4 µM) was 0.154, the viability ([1]; 20 µM) was 0.0402 and the viability ([2]; 0.032 µM) was 1.17. It also gave a viability ([2]; 0.16 µM) of 1.04, a viability ([2]; 0.8 µM) of 1.09 and a viability ([2]; 4 µM) of 0.93. For the same compound, the viability ([2]; 20 µM) was 0.589, the viability ([3]; 0.032 µM) was 1.1 and the viability ([3]; 0.16 µM) was 1.07. For the same compound, the viability ([3]; 0.8 µM) was 1.14, the viability ([3]; 4 µM) was 0.884 and the viability ([3]; 20 µM) was 0.4. The viability ([4]; 0.032 µM) was 1.01, the viability ([4]; 0.16 µM) was 0.886 and the viability ([4]; 0.8 µM) was 0.673. The viability ([4]; 4 µM) was 0.264, the viability ([4]; 20 µM) was 0.143 and the viability ([5]; 0.032 µM) was 1.19. The viability ([5]; 0.16 µM) was 1.15, the viability ([5]; 0.8 µM) was 0.871 and the viability ([5]; 4 µM) was 0.387. The viability ([5]; 20 µM) was 0.24, the viability ([6]; 0.032 µM) was 1.52 and the viability ([6]; 0.16 µM) was 1.04. The viability ([6]; 0.8 µM) was 0.942, the viability ([6]; 4 µM) was 0.681 and the viability ([6]; 20 µM) was 0.224. It also gave a viability ([7]; 0.032 µM) of 1.05, a viability ([7]; 0.16 µM) of 0.968 and a viability ([7]; 0.8 µM) of 0.876. The viability ([7]; 4 µM) was 0.434, the viability ([7]; 20 µM) was 0.209 and the viability ([8]; 0.032 µM) was 0.974. It also gave a viability ([8]; 0.16 µM) of 0.858, a viability ([8]; 0.8 µM) of 0.694 and a viability ([8]; 4 µM) of 0.513. The viability ([8]; 20 µM) was 0.409, the viability ([9]; 0.032 µM) was 1.1 and the viability ([9]; 0.16 µM) was 0.993. For the same compound, the viability ([9]; 0.8 µM) was 0.783, the viability ([9]; 4 µM) was 0.142 and the viability ([9]; 20 µM) was 0.0678. It also gave a viability ([10]; 0.032 µM) of 1.03, a viability ([10]; 0.16 µM) of 1.1 and a viability ([10]; 0.8 µM) of 0.882. It also gave a viability ([10]; 4 µM) of 0.849, a viability ([10]; 20 µM) of 0.419 and a viability ([11]; 0.032 µM) of 1.04. It also gave a viability ([11]; 0.16 µM) of 0.899, a viability ([11]; 0.8 µM) of 0.607 and a viability ([11]; 4 µM) of 0.317. The viability ([11]; 20 µM) was 0.26, the viability ([12]; 0.032 µM) was 1.02 and the viability ([12]; 0.16 µM) was 0.877. It also gave a viability ([12]; 0.8 µM) of 0.649, a viability ([12]; 4 µM) of 0.324 and a viability ([12]; 20 µM) of 0.112. It also gave a viability ([13]; 0.032 µM) of 1.1, a viability ([13]; 0.16 µM) of 1.01 and a viability ([13]; 0.8 µM) of 0.807. For the same compound, the viability ([13]; 4 µM) was 0.38, the viability ([13]; 20 µM) was 0.209 and the viability ([14]; 0.032 µM) was 0.81. It also gave a viability ([14]; 0.16 µM) of 0.397, a viability ([14]; 0.8 µM) of 0.237 and a viability ([14]; 4 µM) of 0.166. It also gave a viability ([14]; 20 µM) of 0.108, a viability ([15]; 0.032 µM) of 1.02 and a viability ([15]; 0.16 µM) of 1.08. The viability ([15]; 0.8 µM) was 0.818, the viability ([15]; 4 µM) was 0.346 and the viability ([15]; 20 µM) was 0.189. It also gave a viability ([16]; 0.032 µM) of 1.08, a viability ([16]; 0.16 µM) of 1.03 and a viability ([16]; 0.8 µM) of 1.02. The viability ([16]; 4 µM) was 0.666, the viability ([16]; 20 µM) was 0.467 and the viability ([17]; 0.032 µM) was 1.01. It also gave a viability ([17]; 0.16 µM) of 0.793, a viability ([17]; 0.8 µM) of 0.711 and a viability ([17]; 4 µM) of 0.319. For the same compound, the viability ([17]; 20 µM) was 0.118.
